The values below are quoted from earlier work in US8778869B2, “Tissue regeneration system” (Wisconsin Alumni Research Foundation, priority 2010, dated 2014).

Regarding fibroblast growth factor-2 [FGF-2], the “concentration of optimal in vitro biological activity” value is “approximately 1 nM”.

B1: bone morphogenetic protein-2 (protein, listed as Homo sapiens)
chain: MVAGTRCLLALLLPQVLLGGAAGLVPELGRRKFAAASSGRPSSQPSDEVLSEFELRLLSMFGLKQRPTPSRDAVVPPYMLDLYRRHSGQPGSPAPDHRLERAASRANTVRSFHHEESLEELPETSGKTTRRFFFNLSSIPTEEFITSAELQVFREQMQDALGNNSSFHHRINIYEIIKPATANSKFPVTRLLDTRLVNQNASRWESFDVTPAVMRWTAQGHANHGFVVEVAHLEEKQGVSKRHVRISRSLHQDEHSWSQIRPLLVTFGHDGKGHPLHKREKRQAKHKQRKRLKSSCKRHPLYVDFSDVGWNDWIVAPPGYHAFYCHGECPFPLADHLNSTNHAIVQTLVNSVNSKIPKACCVPTELSAISMLYLDENEKVVLKNYQDMVVEGCGCR
In the case of B1, the “concentration of optimal in vitro biological activity” value was “approximately 1 nM”.
